Source: PubChem BioAssay (NCI)
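Exposure lasted 48 hours, with cells grown in 96-well plates and compounds tested at five concentrations. TGI marks complete inhibition of growth.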

Assays:
Test in all cases: growth of human tumour cells (NCI), 48 h
OVCAR-5 ovarian = tested on: OVCAR-5 ovarian
SNB-19 CNS = tested on: SNB-19 CNS
HT29 colon = tested on: HT29 colon
COLO 205 colon = tested on: COLO 205 colon
A498 renal = tested on: A498 renal
DMS 273 small cell lung = tested on: DMS 273 small cell lung
KM20L2 colon = tested on: KM20L2 colon
DMS 114 small cell lung = tested on: DMS 114 small cell lung
HCT-15 colon = tested on: HCT-15 colon
HOP-18 NSCLC = tested on: HOP-18 NSCLC
XF 498 CNS = tested on: XF 498 CNS
M19-MEL melanoma = tested on: M19-MEL melanoma
ACHN renal = tested on: ACHN renal

SMILES | TGI (OVCAR-5 ovarian) [µM] | TGI (SNB-19 CNS) [µM] | TGI (HT29 colon) [µM] | TGI (COLO 205 colon) [µM] | TGI (A498 renal) [µM] | TGI (DMS 273 small cell lung) [µM] | TGI (KM20L2 colon) [µM] | TGI (DMS 114 small cell lung) [µM] | TGI (HCT-15 colon) [µM] | TGI (HOP-18 NSCLC) [µM] | TGI (XF 498 CNS) [µM] | TGI (M19-MEL melanoma) [µM] | TGI (ACHN renal) [µM]
CC(=O)Nc1cccc(N=NN(C)C)c1 | > 100 | > 100 | > 100 | > 100 | > 100 | > 100 | > 100 | > 100 | > 100 | > 100 | > 100 | > 100 | –
CCOc1ccc(N/C(=C(/C(Cl)=C(/Cl)NC(C)(C)C)[N+](=O)[O-])n2nnc3ccccc32)cc1 | > 100 | > 100 | > 100 | 36.1 | > 100 | – | – | – | 39 | – | – | – | > 100
O=CN1CCN(C(=O)c2ccc(Cl)c(Cl)c2)C1=S | 32.4 | 31.7 | 38.4 | 37.8 | 29.8 | – | – | – | 43 | – | – | – | 31.6
CCOC(=O)c1c(NC(=S)Nc2ccccc2)sc2c1CCOC2 | > 100 | > 100 | > 100 | > 100 | > 100 | – | – | – | > 100 | – | – | – | > 100
COc1ccc(/C=C2\C[C@H]3[C@@H]4CCC5=CC(=O)CC[C@]5(C)[C@H]4CC[C@]3(C)C2=O)cc1OC | > 100 | > 100 | > 100 | 9.93 | > 100 | – | – | – | > 100 | – | – | – | > 100
CN(C)c1ccc(C=C2C(=O)NC(=S)NC2=O)c2ccccc12 | > 100 | > 100 | > 100 | > 100 | > 100 | – | – | – | > 100 | – | – | – | > 100
CN1CC2CN(Cc3ccccc3)CCN2c2cccnc21 (stereo unspecified) | > 100 | > 100 | 87.9 | > 100 | > 100 | – | – | – | > 100 | – | – | – | > 100
COc1cccc(C2c3cc4c(cc3OC(Nc3ccccc3)C2C)OCO4)c1OC (stereo unspecified) | > 100 | > 100 | > 100 | 19.7 | > 100 | – | – | – | > 100 | – | – | – | > 100
COc1ccc(-c2oc3c(OC)c(OC)cc(O)c3c(=O)c2OC)cc1 | > 100 | > 100 | > 100 | > 100 | > 100 | – | – | – | > 100 | – | – | – | > 100
CCOC(=O)C(Cl)(NC(=O)OCc1ccccc1)C(F)(F)F (stereo unspecified) | > 100 | > 100 | > 100 | > 100 | > 100 | – | – | – | > 100 | – | – | – | > 100
O=C(c1ccc(Cl)cc1)N(C(=S)OCCOc1ccccc1)c1ccccc1 | 36.4 | 42.8 | 35.6 | 37.1 | 48 | – | – | – | 42.2 | – | – | – | 47.9
Cn1cc(-c2csc(-c3cn(C)c4ccccc34)n2)c2ccccc21 | > 100 | > 100 | > 100 | > 100 | 48.1 | – | – | – | > 100 | – | – | – | > 100
OC1CSc2nc3ccccc3n2C1 (stereo unspecified) | > 100 | > 100 | > 100 | > 100 | > 100 | – | – | – | > 100 | – | – | – | > 100
